Laboratory results: US20250059174A1, “Pharmaceutical Compounds and Compositions as C-Kit Kinase Inhibitors” (Enanta Pharmaceuticals, Inc., priority 2023, published 2025)

Key:
[1] = molecular target: Recombinant human c-KIT kinase (Homo sapiens (Human), UniProt P10721); assay: c-KIT kinase chemiluminescence assay (ADP-Glo); assay type: biochemical; conditions: ATP 50 μM
Method in brief: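 ADP formed by c-KIT on polyEY over 2 h at RT (after 30 min enzyme preincubation; Tris pH 7.5, MgCl2, BSA, DTT buffer) was detected by ADP-Glo luminescence. IC50 and Hill slope were fitted to control-normalized activity across compound concentrations.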

M-07e cells = assay: M-07e cellular assay (SCF-mediated cell proliferation); assay type: cell-based; conditions: Homo sapiens, 72 hours, CellTiter Glo
Method in brief: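 EC50 values reflect inhibition of SCF-driven proliferation, with SCF at EC90 and a 72 h compound exposure, measured as CellTiter Glo luminescence. Growth is scaled between no-SCF (0%) and untreated (100%) wells.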

Sequence of Recombinant human c-KIT kinase (P10721 26-976): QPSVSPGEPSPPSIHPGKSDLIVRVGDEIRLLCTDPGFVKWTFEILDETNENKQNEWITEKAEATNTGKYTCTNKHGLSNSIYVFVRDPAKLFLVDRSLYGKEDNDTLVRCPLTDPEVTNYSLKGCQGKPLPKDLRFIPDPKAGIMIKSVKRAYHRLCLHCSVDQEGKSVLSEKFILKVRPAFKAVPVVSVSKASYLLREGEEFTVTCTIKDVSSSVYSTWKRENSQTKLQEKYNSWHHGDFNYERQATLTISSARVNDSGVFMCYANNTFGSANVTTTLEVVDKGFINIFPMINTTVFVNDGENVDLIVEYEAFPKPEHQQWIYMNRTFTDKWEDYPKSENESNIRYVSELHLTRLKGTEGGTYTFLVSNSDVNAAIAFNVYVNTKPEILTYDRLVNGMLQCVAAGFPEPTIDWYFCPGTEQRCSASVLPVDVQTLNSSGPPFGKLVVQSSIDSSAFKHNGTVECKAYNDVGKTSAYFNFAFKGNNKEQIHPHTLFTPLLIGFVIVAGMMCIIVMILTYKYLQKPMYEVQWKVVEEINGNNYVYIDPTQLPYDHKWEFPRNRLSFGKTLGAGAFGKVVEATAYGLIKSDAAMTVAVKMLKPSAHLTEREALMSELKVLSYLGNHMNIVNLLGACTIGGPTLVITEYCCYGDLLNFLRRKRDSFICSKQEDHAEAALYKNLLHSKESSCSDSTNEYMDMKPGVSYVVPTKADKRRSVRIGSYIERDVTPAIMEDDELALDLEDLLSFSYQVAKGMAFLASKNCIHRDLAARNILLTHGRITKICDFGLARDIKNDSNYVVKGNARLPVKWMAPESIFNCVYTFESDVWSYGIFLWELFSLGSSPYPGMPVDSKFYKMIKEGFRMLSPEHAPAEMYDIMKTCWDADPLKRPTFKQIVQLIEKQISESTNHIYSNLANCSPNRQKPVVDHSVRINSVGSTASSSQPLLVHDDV

| SMILES | IC50 [1] [nM] | EC50 (M-07e cells) [nM] |
| --- | --- | --- |
| Cc1ccc(-c2noc([C@H]3C[C@@H]3F)n2)cc1NC(=O)c1cnn2ccc(N3CC[C@H]3C(=O)OC(C)(C)C)cc12 [Example 209] | 100 to 1000 | 100 to 1000 |
| Cc1ccc(-c2noc([C@H]3C[C@@H]3F)n2)cc1NC(=O)c1cnn2ccc(N3CC4CCC3CN4C(=O)OC(C)(C)C)cc12 (stereo partly drawn) [Example 210] | 100 to 1000 | 100 to 1000 |
| Cc1ccc(-c2noc([C@H]3C[C@@H]3F)n2)cc1NC(=O)c1cnn2ccc(N3CC4(CNC4)C3)cc12 [Example 211] | < 100 | 100 to 1000 |
| Cc1ccc(-c2noc([C@H]3C[C@@H]3F)n2)cc1NC(=O)c1cnn2ccc(N3CC4(CN(CC(F)F)C4)C3)cc12 [Example 212] | < 100 | < 100 |
| Cc1ccc(-c2noc([C@H]3C[C@@H]3F)n2)cc1NC(=O)c1cnn2ccc(N3CC4(C3)CC(F)(F)C4)cc12 [Example 213] | < 100 | < 100 |
| Cc1ccc(-c2noc([C@H]3C[C@@H]3F)n2)cc1NC(=O)c1cnn2ccc(N3CCO[C@H](C)C3)cc12 [Example 214] | < 100 | < 100 |
| Cc1ccc(-c2noc([C@H]3C[C@@H]3F)n2)cc1NC(=O)c1cnn2ccc(N3CCO[C@@H](C)C3)cc12 [Example 215] | < 100 | < 100 |
| Cc1ccc(-c2noc([C@H]3C[C@@H]3F)n2)cc1NC(=O)c1cnn2ccc(N3CCC4(C3)CC4(F)F)cc12 (stereo partly drawn) [Example 216] | < 100 | < 100 |
| Cc1ccc(-c2noc([C@H]3C[C@@H]3F)n2)cc1NC(=O)c1cnn2ccc(N3CC4(C3)CC4(F)F)cc12 [Example 217] | < 100 | < 100 |
| CC(=O)N1CC(Oc2ccn3ncc(C(=O)Nc4cc(-c5noc([C@H]6C[C@@H]6F)n5)ccc4C)c3c2)C1 [Example 218] | 100 to 1000 | 100 to 1000 |
| Cc1ccc(-c2noc([C@H]3C[C@@H]3F)n2)cc1NC(=O)c1cnn2ccc(OC3COC3)cc12 [Example 219] | < 100 | < 100 |
| Cc1ccc(-c2noc([C@H]3C[C@@H]3F)n2)cc1NC(=O)c1cnn2ccc(O[C@@H]3CCOC3)cc12 [Example 220] | < 100 | 100 to 1000 |
| Cc1ccc(-c2noc([C@H]3C[C@@H]3F)n2)cc1NC(=O)c1cnn2ccc(O[C@H]3CCOC3)cc12 [Example 221] | < 100 | 100 to 1000 |
| Cc1ccc(-c2noc([C@H]3C[C@@H]3F)n2)cc1NC(=O)c1cnn2ccc(N3CC(F)(F)C3)cc12 [Example 222] | < 100 | 100 to 1000 |
| Cc1ccc(-c2noc([C@H]3C[C@@H]3F)n2)cc1NC(=O)c1cnn2ccc(N3CC(F)(C(F)(F)F)C3)cc12 [Example 223] | 100 to 1000 | 100 to 1000 |
| Cc1ccc(-c2noc([C@H]3C[C@@H]3F)n2)cc1NC(=O)c1cnn2ccc(N3C[C@@H](F)[C@@H]3C)cc12 [Example 224] | < 100 | < 100 |
| Cc1ccc(-c2noc([C@H]3C[C@@H]3F)n2)cc1NC(=O)c1cnn2ccc(N3CC(C(F)(F)F)C3)cc12 [Example 225] | < 100 | 100 to 1000 |
| COC1(OC)CC2(CN(c3ccn4ncc(C(=O)Nc5cc(-c6noc([C@H]7C[C@@H]7F)n6)ccc5C)c4c3)C2)C1 [Example 226] | < 100 | < 100 |
| Cc1ccc(-c2noc([C@H]3C[C@@H]3F)n2)cc1NC(=O)c1cnn2ccc(N3CC4(CCC4)C3)cc12 [Example 227] | < 100 | 100 to 1000 |
| Cc1ccc(-c2noc([C@H]3C[C@@H]3F)n2)cc1NC(=O)c1cnn2ccc(N3CC4CC3C4(C)C)cc12 (stereo partly drawn) [Example 228] | < 100 | 100 to 1000 |
| Cc1ccc(-c2noc([C@H]3C[C@@H]3F)n2)cc1NC(=O)c1cnn2ccc(N3CCN(CC(F)(F)F)[C@H](C)C3)cc12 [Example 230] | < 100 | < 100 |
| Cc1ccc(-c2noc([C@H]3C[C@@H]3F)n2)cc1NC(=O)c1cnn2ccc(N3CC4(CC(=O)C4)C3)cc12 [Example 231] | < 100 | < 100 |
| Cc1ccc(-c2noc([C@H]3C[C@@H]3F)n2)cc1NC(=O)c1cnn2ccc(N3CC4(C3)CC(O)(C(F)F)C4)cc12 [Example 232] | < 100 | < 100 |

| SMILES | IC50 [1] [nM] | EC50 (M-07e cells) [nM] |
| --- | --- | --- |
| Cc1ccc(-c2noc([C@H]3C[C@@H]3F)n2)cc1NC(=O)c1cnn2ccc(N3CC4(C3)CC(O)(C(F)(F)F)C4)cc12 [Example 233] | < 100 | < 100 |
| CC(=O)N1CCN(c2ccn3ncc(C(=O)Nc4cc(-c5noc([C@H]6C[C@@H]6F)n5)ccc4C)c3c2)C[C@H]1C [Example 234] | < 100 | < 100 |
| Cc1ccc(-c2noc([C@H]3C[C@@H]3F)n2)cc1NC(=O)c1cnn2ccc(N3CC4(CCN4C(=O)OC(C)(C)C)C3)cc12 [Example 235] | > 1000 | > 1000 |
| Cc1ccc(-c2noc([C@H]3C[C@@H]3F)n2)cc1NC(=O)c1cnn2ccc(-n3cc(NC(=O)OC(C)(C)C)cn3)cc12 [Example 236] | 100 to 1000 | 100 to 1000 |
| Cc1ccc(-c2noc([C@H]3C[C@@H]3F)n2)cc1NC(=O)c1cnn2ccc(-n3cc(N)cn3)cc12 [Example 237] | < 100 | 100 to 1000 |
| Cc1ccc(-c2noc([C@H]3C[C@@H]3F)n2)cc1NC(=O)c1cnn2ccc(Nc3cn[nH]c3)cc12 [Example 238] | < 100 | < 100 |
| Cc1ccc(-c2noc([C@H]3C[C@@H]3F)n2)cc1NC(=O)c1cnn2ccc(N3CC4(CCN4)C3)cc12 [Example 239] | < 100 | 100 to 1000 |
| CCC1(O)CC2(CN(c3ccn4ncc(C(=O)Nc5cc(-c6noc([C@H]7C[C@@H]7F)n6)ccc5C)c4c3)C2)C1 [Example 240] | < 100 | < 100 |
| Cc1ccc(-c2noc([C@H]3C[C@@H]3F)n2)cc1NC(=O)c1cnn2ccc(N3CC4(C3)CN(S(C)(=O)=O)C4)cc12 [Example 241-1] | < 100 | < 100 |
| Cc1ccc(-c2noc([C@H]3C[C@@H]3F)n2)cc1NC(=O)c1cnn2ccc(N3CC4(COC(C)(C)OC4)C3)cc12 [Example 241-2] | < 100 | > 1000 |
| Cc1ccc(-c2noc([C@H]3C[C@@H]3F)n2)cc1NC(=O)c1cnn2ccc(N3CC(CO)(CO)C3)cc12 [Example 241-3] | < 100 | < 100 |
| Cc1ccc(-c2noc([C@H]3C[C@@H]3F)n2)cc1NC(=O)c1cnn2ccc(N3CCN(C(=O)C(F)(F)F)[C@H](C)C3)cc12 [Example 241-4] | < 100 | < 100 |
| Cc1ccc(-c2noc([C@H]3C[C@@H]3F)n2)cc1NC(=O)c1cnn2ccc(N3CCN(C(=O)C4CC4)[C@H](C)C3)cc12 [Example 241-5] | < 100 | < 100 |
| CC(=O)N1CCN(c2ccn3ncc(C(=O)Nc4cc(-c5noc([C@H]6C[C@@H]6F)n5)ccc4C)c3c2)CC1 [Example 241-6] | < 100 | < 100 |
| Cc1ccc(-c2noc([C@H]3C[C@@H]3F)n2)cc1NC(=O)c1cnn2ccc(N3CCN(C(=O)OC(C)(C)C)[C@H](C)C3)cc12 [Example 241-7] | 100 to 1000 | < 100 |
| Cc1ccc(-c2noc([C@H]3C[C@@H]3F)n2)cc1NC(=O)c1cnn2ccc(NCC3(CO)COC3)cc12 [Example 241-8] | < 100 | < 100 |
| Cc1ccc(-c2noc([C@H]3C[C@@H]3F)n2)cc1NC(=O)c1cnn2ccc(NCC3(C(=O)OC(C)(C)C)COC3)cc12 [Example 241-9] | 100 to 1000 | 100 to 1000 |
| Cc1ccc(-c2noc([C@H]3C[C@@H]3F)n2)cc1NC(=O)c1cnn2ccc(N3CC(C(=O)NC4CC4)C3)cc12 [Example 241-10] | < 100 | < 100 |
| Cc1ccc(-c2noc([C@H]3C[C@@H]3F)n2)cc1NC(=O)c1cnn2ccc(N3CC(C(=O)N4CC(F)(F)C4)C3)cc12 [Example 241-11] | < 100 | < 100 |
| Cc1ccc(-c2noc([C@H]3C[C@@H]3F)n2)cc1NC(=O)c1cnn2ccc(N3CC4(CN(C(=O)C5CC(F)(F)C5)C4)C3)cc12 [Example 241-12] | < 100 | < 100 |
| Cc1ccc(-c2noc([C@H]3C[C@@H]3F)n2)cc1NC(=O)c1cnn2ccc(N3CC(COCc4ccccc4)(C(=O)OCc4ccccc4)C3)cc12 [Example 241-13] | > 1000 | > 1000 |
| Cc1ccc(-c2noc([C@H]3C[C@@H]3F)n2)cc1NC(=O)c1cnn2ccc(NCC3(C(=O)O)COC3)cc12 [Example 241-14] | 100 to 1000 | > 1000 |
